# In patent US7268128B2, “1,3,5-trisubstituted-5-phenyl and 5-pyridyl pyrazolopyrimidinone derivatives having PDE7 inhibiting action” (Ausbio Pharma Co., Ltd., priority 2001, dated 2007):
# Counter-ions that a name gives are not always drawn.
# Biological target: T1, PDE7 (type VII phosphodiesterase) (Homo sapiens, UniProt Q13946)
# T1 construct: endogenous in cells; host or cells: MOLT-4 (ATCC CRL-1582), soluble fraction, HiTrapQ anion-exchange fraction
# Assay: PDE7 inhibiting activity (3H-cAMP hydrolysis, active fraction from MOLT-4 cells)
# Format: biochemical
# Conditions: PDE7 fraction from MOLT-4 cells, 0.064 μM cAMP, 10 μM rolipram present, 2 hours at 25° C.; read-out: IC50 values for phosphodiesterase inhibiting activities (PDE7)
# Summary of the method: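 PDE7 from MOLT-4 cell soluble fraction, HiTrapQ NaCl-gradient purified. Compounds reacted 2 h at 25° C in 20 mM tris-HCl pH 7.5, 1 mM MgCl2, 0.1 μCi 3H-cAMP (0.064 μM cAMP), 10 μM rolipram, 5′-nucleotidase; QAE-Sephadex-separated supernatant counted.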
# T1 sequence (Q13946 whole entry): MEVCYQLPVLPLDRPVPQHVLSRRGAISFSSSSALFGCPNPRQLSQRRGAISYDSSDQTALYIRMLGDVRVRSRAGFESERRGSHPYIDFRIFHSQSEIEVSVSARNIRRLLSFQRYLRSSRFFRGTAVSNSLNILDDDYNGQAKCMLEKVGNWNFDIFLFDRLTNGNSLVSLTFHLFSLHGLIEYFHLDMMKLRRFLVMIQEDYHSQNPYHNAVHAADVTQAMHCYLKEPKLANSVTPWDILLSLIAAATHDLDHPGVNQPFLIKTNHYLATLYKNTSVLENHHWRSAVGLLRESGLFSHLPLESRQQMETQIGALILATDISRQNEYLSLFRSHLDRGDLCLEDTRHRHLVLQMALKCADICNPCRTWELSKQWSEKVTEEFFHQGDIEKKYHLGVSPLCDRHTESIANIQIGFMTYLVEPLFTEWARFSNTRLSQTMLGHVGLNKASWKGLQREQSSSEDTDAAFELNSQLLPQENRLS
row,SMILES,IC50 [nM]
1,"CNC1CCN(c2ccc(-c3nc4c(c(C5CCCCCC5)nn4C)c(=O)[nH]3)c(OC)c2)CC1 [Example 95, 3-Cycloheptyl-6-{2-methoxy-4-[4-(methylamino)-1-piperidinyl]phenyl}-1-methyl-1,5-dihydro-4H-pyrazolo[3,4-d]pyrimidin-4-one monomethanesulfonate]",≤ 10
2,"COc1cc(OCCO)ccc1-c1nc2c(c(C3CCCCC3)nn2C)c(=O)[nH]1 [Example 37, 3-Cyclohexyl-6-[4-(2-hydroxyethoxy)-2-methoxyphenyl]-1-methyl-1,5-dihydro-4H-pyrazolo[3,4-d]pyrimidin-4-one]",≤ 1000
3,"COc1cc(N2CCN(C)CC2)ccc1-c1nc2c(c(C3CCCCCC3)nn2C)c(=O)[nH]1 [Example 64, 3-Cycloheptyl-6-[2-methoxy-4-(4-methyl-1-piperazinyl)phenyl]-1-methyl-1,5-dihydro-4H-pyrazolo[3,4-d]pyrimidin-4-one]",≤ 1000
4,"COc1cc(N2CCOCC2)ccc1-c1nc2c(c(C3CCCCC3)nn2C)c(=O)[nH]1 [Example 59, 3-Cyclohexyl-6-[2-methoxy-4-(4-morpholinyl)phenyl]-1-methyl-1,5-dihydro-4H-pyrazolo[3,4-d]pyrimidin-4-one]",≤ 1000
5,"COc1cc(N2CCNCC2)ccc1-c1nc2c(c(C3CCCCCC3)nn2C)c(=O)[nH]1 [Example 78, 3-Cycloheptyl-6-[2-methoxy-4-(1-piperazinyl)phenyl]-1-methyl-1,5-dihydro-4H-pyrazolo[3,4-d]pyrimidin-4-one monomethanesulfonate]",≤ 10
6,"CC(=O)Nc1ccc(-c2nc3c(C)nn(C4CCCCC4)c3c(=O)[nH]2)cc1 [Example 4, N-[4-(1-cyclohexyl-3-methyl-7-oxo-6,7-dihydro-1H-pyrazolo[4,3-d]pyrimidin-5-yl)phenyl]acetamide]",≤ 1000
7,"Cc1nn(C2CCCCC2)c2c(=O)[nH]c(-c3ccc([N+](=O)[O-])cc3)nc12 [Example 2, 1-Cyclohexyl-3-methyl-5-(4-nitrophenyl)-1,6-dihydro-7H-pyrazolo[4,3-d]pyrimidin-7-one]",≤ 1000
8,"COc1cc(N2CCC3(CC2)OCCO3)ccc1-c1nc2c(c(C3CCCCC3)nn2C)c(=O)[nH]1 [Example 29, 3-Cyclohexyl-6-[4-(1,4-dioxa-8-azaspiro[4,5]deca-8-yl)-2-methoxyphenyl]-1-methyl-1,5-dihydro-4H-pyrazolo[3,4-d]pyrimidin-4-one]",≤ 1000
9,"COc1cc(S(=O)(=O)N2CCC(O)CC2)ccc1-c1nc2c(c(C3CCCCC3)nn2C)c(=O)[nH]1 [Example 52, 3-Cyclohexyl-6-{4-[(4-hydroxy-1-piperidinyl)sulfonyl]-2-methoxyphenyl}-1-methyl-1,5-dihydro-4H-pyrazolo[3,4-d]pyrimidin-4-one]",≤ 10
10,"COc1cc(C(=O)O)ccc1-c1nc2c(c(C3CCCCC3)nn2C)c(=O)[nH]1 [Example 65, 4-(3-Cyclohexyl-1-methyl-4-oxo-4,5-dihydro-1H-pyrazolo[3,4-d]pyrimidin-6-yl)-3-methoxybenzoic acid]",≤ 1000

# Further lines, results first:
row,IC50 [nM],SMILES
1,≤ 1000,"CCn1nc(C2CCCCC2)c2c(=O)[nH]c(-c3ccc(S(=O)(=O)N4CCC(O)CC4)cc3OC)nc21 [Example 207, 3-Cyclohexyl-1-ethyl-6-{4-[(4-hydroxy-1-piperidinyl)sulfonyl]-2-methoxyphenyl}-1,5-dihydro-4H-pyrazolo[3,4-d]pyrimidin-4-one]"
2,≤ 1000,"CNCCCN(C)S(=O)(=O)c1ccc(-c2nc3c(C)nn(C4CCCCC4)c3c(=O)[nH]2)c(OC)c1 [Example 215, 4-(1-Cyclohexyl-3-methyl-7-oxo-6,7-dihydro-1H-pyrazolo[4,3-d]pyrimidin-5-yl)-3-methoxy-N-methyl-N-[3-(methylamino)propyl]benzenesulfonamide]"
3,≤ 1000,"COc1cc(CCC(=O)O)ccc1-c1nc2c(C)nn(C3CCCCC3)c2c(=O)[nH]1 [Example 229, 3-[4-(1-Cyclohexyl-3-methyl-7-oxo-6,7-dihydro-1H-pyrazolo[4,3-d]pyrimidin-5-yl)-3-methoxyphenyl]propanic acid]"
4,≤ 1000,"CCNC1CCN(c2ccc(-c3nc4c(C)nn(C5CCCCC5)c4c(=O)[nH]3)c(OC)c2)CC1 [Example 99, 1-Cyclohexyl-5-{2-methoxy-4-[4-(ethylamino)-1-piperidinyl]phenyl}-3-methyl-1,6-dihydro-7H-pyrazolo[4,3-d]pyrimidin-7-one]"
5,≤ 10,"CCNC1CCN(c2ccc(-c3nc4c(c(C5CCCCC5)nn4C)c(=O)[nH]3)c(OC)c2)CC1 [Example 97, 3-Cyclohexyl-6-{2-methoxy-4-[4-(ethylamino)-1-piperidinyl]phenyl}-1-methyl-1,5-dihydro-4H-pyrazolo[3,4-d]pyrimidin-4-one]"
6,≤ 1000,"COc1cc(S(=O)(=O)N2CCCNCC2)ccc1-c1nc2c(c(C3CCCCC3)nn2C)c(=O)[nH]1 [Example 161, 3-Cyclohexyl-6-[4-(1,4-diazepan-1-ylsulfonyl)-2-methoxyphenyl]-1-methyl-1,5-dihydro-4H-pyrazolo[3,4-d]pyrimidin-4-one monomethanesulfonate]"
7,≤ 1000,"COc1cc(CN2CCC(O)CC2)ccc1-c1nc2c(C)nn(C3CCCCC3)c2c(=O)[nH]1 [Example 236, 1-Cyclohexyl-5-{4-[(4-hydroxy-1-piperidinyl)methyl]-2-methoxyphenyl}-3-methyl-1,6-dihydro-7H-pyrazolo[4,3-d]pyrimidin-7-one]"
8,≤ 1000,"CNCCN(C)S(=O)(=O)c1ccc(-c2nc3c(C)nn(C4CCCCC4)c3c(=O)[nH]2)c(OC)c1 [Example 212, 4-(1-Cyclohexyl-3-methyl-7-oxo-6,7-dihydro-1H-pyrazolo[4,3-d]pyrimidin-5-yl)-3-methoxy-N-methyl-N-[2-(methylamino)ethyl]benzenesulfonamide]"
9,≤ 10,"CCOc1cc(N2CCC(O)CC2)ccc1-c1nc2c(C)nn(C3CCCCC3)c2c(=O)[nH]1 [Example 261, 1-Cyclohexyl-5-[2-ethoxy-4-(4-hydroxy-1-piperidinyl)phenyl]-3-methyl-1,6-dihydro-7H-pyrazolo[4,3-d]pyrimidin-7-one]"
10,≤ 1000,"COc1cc(S(=O)(=O)NCCO)ccc1-c1nc2c(C)nn(C3CCCCC3)c2c(=O)[nH]1 [Example 200, 4-(1-Cyclohexyl-3-methyl-7-oxo-6,7-dihydro-1H-pyrazolo[4,3-d]pyrimidin-5-yl)-N-(2-hydroxyethyl)-3-methoxybenzenesulfonamide]"
11,≤ 10,"COc1cc(S(=O)(=O)N2CCCN(C)CC2)ccc1-c1nc2c(c(C3CCCCC3)nn2C)c(=O)[nH]1 [Example 163, 3-Cyclohexyl-6-{2-methoxy-4-[(4-methyl-1,4-diazepan-1-yl)sulfonyl]phenyl}-1-methyl-1,5-dihydro-4H-pyrazolo[3,4-d]pyrimidin-4-one monomethanesulfonate]"
12,≤ 1000,"COc1cc(S(=O)(=O)NC2CCNCC2)ccc1-c1nc2c(C)nn(C3CCCCC3)c2c(=O)[nH]1 [Example 220, 4-(1-Cyclohexyl-3-methyl-7-oxo-6,7-dihydro-1H-pyrazolo[4,3-d]pyrimidin-5-yl)-3-methoxy-N-(4-piperidinyl)benzenesulfonamide monohydrochloride]"
13,≤ 1000,"COc1cc(S(=O)(=O)N2CCN(C)CC2)ccc1-c1nc2c(C)nn(C3CCCCC3)c2c(=O)[nH]1 [Example 214, 1-Cyclohexyl-5-{2-methoxy-4-[(4-methyl-1-piperazinyl)sulfonyl]phenyl}-3-methyl-1,6-dihydro-7H-pyrazolo[4,3-d]pyrimidin-7-one]"
